Test results from PMC8839081 (Molecules, 2022).
“And” between values parts separate entries of the source, which are not always exact repeats. Equal values may be shown once. Read-outs that look alike come from different tables or passages of the source.

Legend:
[1] = system: C6 glioma cells; assay: GDNF release by C6 cells (sandwich ELISA of culture medium); format: cell-based, Rat; conditions: 48 h; for GDNF in the medium relative to negative control (GDNF/DMSO): initial screening, confluent C6 cells, 10 μM; for EC50: Rattus norvegicus, C6 glioma, read-out: EC50 of GDNF release; for maximum GDNF release relative to vehicle: dose-response assay, maximum at 10 µM
Procedure: (§1) Cell culture: Rat C6 glioma cells were purchased from the American Type Culture Collection (CC-107) and maintained in Dulbecco’s Modified Eagle Medium (Life Technologies, Carlsbad, CA, USA; 10569) with 5% (v/v) fetal bovine serum (FBS, Atlanta Biologicals) and 100 U mL−1 of penicillin and streptomycin (Life Technologies). Cells were incubated at 37 °C with 5% CO2 humidified atmosphere. As a glioma cell line, C6 cells are highly susceptible to phenotypic drift, which can lead to varying expression levels of receptors and growth factors of interest. For such reason, all data presented here show a single representative experiment of many independent replicate trials.
GDNF release experiments: Into a 96-well plate were added C6 cells at a density of 25,300 cells/well in full growth medium (see above). Cells were allowed to adhere for 24 h at 37 °C. Cells were then serum-starved with media containing 0.5% FBS (low serum) for an additional 24 h. Low-serum media was refreshed prior to starting the experiment. Compounds were added in 50 μL of low-serum media to obtain a final volume of 200 μL/well. Treatments were performed in quadruplicate. […] Experiments were terminated by removing the conditioned media from each well and storing them at −80 °C until analyzed. GDNF was detected using a standard sandwich-style ELISA kit purchased from Promega Corporation (Madison, WI, USA) following the manufacturer’s instructions. Briefly, monoclonal anti-GDNF antibodies were captured onto a 96-well Nunc Immulon Immunoassay plate at a dilution of 1:1000 in carbonate coating buffer (25 mM sodium bicarbonate, 25 mM sodium carbonate, pH 8.2) overnight at 4 °C. After removing the monoclonal antibody, wells were blocked with 1× block and sample buffer for 1 h at RT (200 μL/well). A GDNF standard curve was created by serially diluting the recombinant human GDNF standard in 1× block and sample buffer to a concentration range of 0−1000 pg mL^−1. To each sample well was added 100 μL of conditioned media from above and the standard curve (in duplicate), and plates were incubated for 6 h with shaking at RT. After washing five times with TBST (150 mM sodium chloride, 10 mM Tris·HCl, 10 mM Tris base, 0.05% Tween 20, pH 7.6), wells were incubated with antihuman polyclonal GDNF antibodies (1:500) in 1× block and sample buffer overnight at 4 °C. Following an additional five washes with TBST, wells were incubated with antichicken IgY-HRP conjugate antibody (1:250) for 2 h with light shaking. After a final five washes, TMB One (100 μL/well) was added to each well and allowed to develop in the absence of light until there were clear differences in color between the highest and lowest concentrations of the standard curve. Wells were then quenched with 1 M HCl (100 μL/well), and the plates were read at an absorbance wavelength of 450 nm using a BioTek Synergy H1 plate reader.

[2] = system: C6 glioma cells; assay: WST-1 cell viability assay on C6 cells; format: cell-based, Rat; conditions: for IC50: Rattus norvegicus, 48 h exposure, read-out: IC50 of cell proliferation / cell viability (WST-1)
Procedure: as §1
WST-1 Cell Viability Assay: After compound treatment, conditioned media were removed and replaced with 75 μL of warm low-serum media. To each well was added 5 μL of WST-1 Cell Proliferation Reagent (Roche Applied Science, Penzberg, Germany), and the cells were incubated at 37 °C for no more than 1 h. Plates were briefly shaken prior to reading the absorbance at 450 nm. Treatments were compared to vehicle control.

[3] = system: C6 glioma cells; assay: LDH cytotoxicity (cell lysis) assay on C6 cells; format: cell-based; conditions: 48 h, dose-response 0.03 to 60 µM
Procedure: as §1
LDH Cytotoxicity Assay: The lactate dehydrogenase cytotoxicity assay (Promega) was performed following the manufacturer’s instructions. Briefly, following compound treatment, conditioned media were removed, and untreated wells were washed twice with phosphate buffered saline. To untreated wells was added 40 μL of low-serum media supplemented with lysis buffer provided in the kit (1:10), protease inhibitor cocktail (1:100), and phosphatase inhibitor cocktail 2 (1:100). Cells were lysed at 37 °C for 1 h. […] The wells were quenched with 50 μL of stop solution, and the plates were read at an absorbance wavelength of 490 nm.

[4] = system: bloodstream Trypanosoma brucei brucei; assay: Bioluminescent viability assay on bloodstream T. b. brucei (LUC cell line); format: cell-based; conditions: 24 h; for viability at 10 µM: read-out: Viability at 10 µM (%), bloodstream T. b. brucei, 10 µM, 24 h
Procedure: The anti-trypanosomal activity of compounds was evaluated against the bioluminescent cell line of the bloodstream stage of Trypanosoma brucei brucei (called LUC cell line) as previously described. Briefly, to a 96-well culture plate containing 2.2 μL/well DMSO (negative control) or compounds dissolved in DMSO (1% final concentration), 220 μL/well of a suspension of 1 × 10^5 parasites/mL was added. The plates were incubated at 37 °C and 5% CO2 for 24 h. Next, each well was transferred to a 96-well black plate and 20 μL of a solution containing D-Luciferin (1.5 mg/mL in PBS glucose 1% w/v) and Triton X-100 (0.05% vol/vol) was added. Bioluminescence signal was measured in a LUMIstar OPTIMA Microplate luminometer using the following settings: 10 s shaking, 5 s/well acquisition, 0.2 s measurement delay, maximum gain, and 37 °C. For the bioluminescence assay, parasite viability was calculated according to the following formula: Viability (%) = (BLcpd—BLblank)/ (Blneg—BLblank) × 100, where BL refers to the mean of bioluminescence signal corresponding to the tested compound (cpd), the blank (blank, complete media containing 1% v/v DMSO), or the negative control (neg, parasites treated with 1% v/v DMSO). EC50 values were determined from concentration-response curves fitted to a four-parameter sigmoid equation using the GraphPad Prism software (version 6.0). All errors are expressed as one SD.

[5] = system: bloodstream Trypanosoma brucei brucei; conditions: read-out: EC50 (µM) against bloodstream T. b. brucei, same cell line and assay conditions, ref Benítez et al. 2020, cited from earlier work
[6] = read-out: EC50 (µM) against bloodstream T. b. brucei, mean SD (n = 3)
[7] = mean SD (n = 3), read-out: EC50 (µM) against bloodstream T. b. brucei
[8] = Trypanosoma brucei, mean SD (n = 3), read-out: EC50 (µM) against bloodstream T. b. brucei
[9] = Trypanosoma brucei, read-out: EC50 (µM) against bloodstream T. b. brucei, 24 h, mean SD (n = 3)

Row | SMILES | GDNF in the medium relative to negative control (GDNF/DMSO) [1] | viability at 10 µM ([4]; Trypanosoma brucei) | EC50 [4, 6] | maximum GDNF release relative to vehicle [1] | EC50 [4, 7] | EC50 [4, 8] | further results
1 | COC(=O)C1C2C=CC(C)(C3OC(C)(C)OC23)N1CCc1c[nH]c2ccccc12 [Compound 6, (1S, 3R, 4S, 5R, 6S)-Methyl N-(2-(3-indolyl)ethyl)-1-methyl-5,6-isopropylidendioxy-2-azabicycle[2.2.2]-7-octenen-3-carboxylate] | up to 6 times | 24 ± 6% | 7.9 µM and 7.96 µM | – | – | – | concentrations at which cell viability is impaired (WST-1) ([2]; 48 h, dose-response 0.03 to 60 µM): ≥ 10 µM; concentrations with significant cell lysis / cell death (LDH) [3]: 60 µM
2 | CC(C)C(C)(C)[Si](C)(C)OCC1C2C=CC(C)(C3OC(C)(C)OC23)N1CCc1c[nH]c2ccccc12 [Compound 11, (1S, 3R, 4S, 5S, 6R)-N-(2-(3-indolyl)ethyl)-1-methyl-3-(dimethyl(1,1,2-trimethylpropyl)silyloxy)methyl-5,6-isopropylidendioxy-2-azabicycle[2.2.2]-7-octene] | ≤ 15 times | 37 ± 6% | – | 9 times | 7.95 ± 0.34 µM | 7.9 µM | EC50 ([1]; dose-response 0.03 to 60 µM): 3.46 µM; IC50 [2]: 17.7 µM
3 | COC(=O)C1C2C=CC(C)(C3OC(C)(C)OC23)N1CCc1c[nH]c2ccccc12 [Compound 7, (1S, 3S, 4S, 5S, 6R)-Methyl N-(2-(3-indolyl)ethyl)-1-methyl-5,6-isopropylidendioxy-2-azabicycle[2.2.2]-7-octenen-3-carboxylate] | – | – | – | – | 31.5 ± 1.18 µM | 31.5 µM | Viability at 10 µM (%) ([4]; bloodstream T. b. brucei, 10 µM): 42 ± 14%
4 | CC1(C)OC2C3C=CC(C)(C2O1)N(CCc1c[nH]c2ccccc12)C3CO [Compound 13, (1S, 3R, 4S, 5S, 6R)-N-(2-(3-indolyl)ethyl)-1-methyl-3-hydroxymethyl-5,6-isopropylidendioxy-2-azabicycle[2.2.2]-7-octene] | – | 88% | – | – | – | – | –
5 | CC1(C)OC2C3C=CC(C)(C2O1)N(CCc1c[nH]c2ccccc12)C3COC(=O)Cc1c[nH]c2ccccc12 [Compound 15, (1S, 3R, 4S, 5S, 6R)-N-(2-(3-indolyl)ethyl)-1-methyl-3-(2-(1H-3-indolyl)acetyloxy)methyl-5,6-isopropylidendioxy-2-azabicycle[2.2.2]-7-octene] | up to 60 times | 0% | – | 70 times | 3.47 ± 0.02 µM | 3.5 µM | EC50 ([1]; dose-response 0.03 to 60 µM): 6.79 µM; IC50 [2]: 3.5 µM
6 | CC(C)C(C)(C)[Si](C)(C)OCC1NC2(C)C=CC1C1OC(C)(C)OC12 [Compound 10exo, (1S, 3R, 4S, 5R, 6S)-1-Methyl-3-(dimethyl(1,1,2-trimethylpropyl)silyloxy)methyl-5,6-isopropylidendioxy-2-azabicycle[2.2.2]-7-octene] | – | 64 ± 2% | – | – | – | – | –
7 | CC1CS(=O)(=O)CCN1/N=C/c1ccc([N+](=O)[O-])o1 (stereo not drawn) [Nifurtimox] | – | – | – | – | – | – | EC50 [5]: 5.3 µM; EC50 ([5]; listed as Nfx): 5.31 ± 0.44 µM
8 | CCC1CC2C=CC1N(CCc1c[nH]c3ccc(F)cc13)C2 (stereo not drawn) [XL-008, reference compound] | ~ 57 times | – | 19.5 ± 0.3 µM | – | – | – | EC50 [4, 9]: 20 µM
9 | CC1(C)OC2C3C=CC(C)(C2O1)N(CCc1c[nH]c2ccccc12)C3COCc1ccccc1 [Compound 14, (1S, 3R, 4S, 5S, 6R)-N-(2-(3-indolyl)ethyl)-1-methyl-3-benzyloximethyl-5,6-isopropylidendioxy-2-azabicycle[2.2.2]-7-octene] | ≤ 7 times | 22 ± 12% | 1.27 ± 0.26 µM | 23 times | – | – | EC50 [1]: 20.1 µM; lowest concentration with impairment in cell viability (WST-1) ([2]; 48 h, dose-response): ≥ 300 nM; EC50 [4, 9]: 1.3 µM
